The target of assay [1] is T1, Dickkopf-related protein 1 (Homo sapiens) (UniProt O94907).
T1 sequence (whole entry): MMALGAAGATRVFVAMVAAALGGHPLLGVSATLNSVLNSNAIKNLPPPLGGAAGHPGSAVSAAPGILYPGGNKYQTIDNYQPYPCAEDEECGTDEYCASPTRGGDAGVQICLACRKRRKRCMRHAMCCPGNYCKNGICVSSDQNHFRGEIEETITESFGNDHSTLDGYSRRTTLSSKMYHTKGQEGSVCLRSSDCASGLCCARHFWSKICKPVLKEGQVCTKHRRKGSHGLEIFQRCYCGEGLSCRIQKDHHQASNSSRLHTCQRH
Briefly: Inhibition of biotin-labeled human recombinant DKK1 assessed as reduction in DKK1 interaction with LRP-6/Fc incubated overnight by chemiluminescence based Alpha-screen assay. On the technique in general: In Alpha technology, singlet oxygen from a donor bead excites a nearby acceptor bead.

For assay [2], the target named is T2, Dickkopf WNT-signaling pathway inhibitor 1 (Rattus norvegicus) (UniProt A6I0Z0).
T2 sequence (whole entry): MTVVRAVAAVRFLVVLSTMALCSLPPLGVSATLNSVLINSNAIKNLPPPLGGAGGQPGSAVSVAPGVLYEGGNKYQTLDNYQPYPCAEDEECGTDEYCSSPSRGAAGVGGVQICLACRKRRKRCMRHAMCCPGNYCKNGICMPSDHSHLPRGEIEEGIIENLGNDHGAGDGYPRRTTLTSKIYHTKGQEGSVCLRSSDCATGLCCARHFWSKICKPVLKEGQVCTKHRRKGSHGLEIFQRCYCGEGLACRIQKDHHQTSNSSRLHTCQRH
Briefly: Inhibition of biotin-labeled rat recombinant DKK1 assessed as reduction in DKK1 interaction with LRP-6/Fc incubated overnight by chemiluminescence based Alpha-screen assay.

In assay [3] the target is T3, Dickkopf-related protein 1 (Homo sapiens, UniProt O94907).
T3 sequence (O94907 whole entry): T1 sequence (whole entry)
The assay is described as follows: Inhibition of human DKK1 in MC3T3E1/TetON-Wnt1/STF-Luc#5 cells assessed as DKK1 neutralizing activity by Wnt1-induced TCF/LEF luciferase reporter gene assay.

Activity calls are given as the source filed them. The calls are words filed in the database; no cut-off is given here. Where a SMILES comes first, the peptide text is derived from it.

For the compound `CSCC[C@H](NC(=O)[C@@H]1CCCN1C(=O)[C@H](Cc1ccc(O)cc1)NC(=O)[C@H](CS)NC(=O)[C@H](Cc1cnc[nH]1)NC(=O)[C@@H]1CCCN1C(=O)[C@H](Cc1cnc[nH]1)NC(=O)[C@H](CC(N)=O)NC(=O)[C@H](CCCNC(=N)N)NC(=O)[C@H](CS)NC(=O)[C@H](CCCNC(=N)N)NC(=O)[C@H](Cc1ccccc1)NC(=O)[C@H](Cc1ccc(O)cc1)NC(=O)[C@H](CO)NC(=O)[C@H](C)NC(=O)[C@@H]1CCCN1C(=O)[C@@H](N)CS)C(=O)N[C@@H](CCC(=O)O)C(=O)N[C@@H](Cc1c[nH]c2ccccc12)C(=O)N[C@@H](CCCNC(=N)N)C(=O)N[C@@H](CS)C(=O)N[C@@H](CC(=O)O)C(=O)NCC(=O)N[C@@H](Cc1ccccc1)C(=O)N[C@@H](CCC(=O)O)C(=O)N[C@@H](CC(=O)O)C(=O)N[C@@H](CS)C(=O)N[C@H](C(=O)N[C@@H](CC(=O)O)C(=O)NCC(=O)N[C@@H](CO)C(=O)N[C@@H](CC(=O)O)C(=O)N[C@@H](CCC(=O)O)C(=O)N[C@@H](CC(C)C)C(=O)N[C@@H](CC(=O)O)C(=O)N[C@@H](CS)C(=O)NCC(=O)NCC(=O)NCC(=O)NCC(=O)O)C(C)C` (H-CPASYFRCRNHPHCYPMEWRCDGFEDCVDGSDELDCGGGG-OH), the inhibition result in assay [1] and in assay [2] was “Active” each time. In addition, the IC50 (commonly the concentration needed to halve the response being measured) in assay [3] lay in the range of 0.8 to 3 nM.

As for `CC[C@H](C)[C@H](NC(=O)[C@H](CS)NC(=O)[C@H](CC(=O)O)NC(=O)[C@@H]1CCCN1C(=O)[C@H](Cc1ccccc1)NC(=O)CNC(=O)[C@H](CC(=O)O)NC(=O)[C@H](CS)NC(=O)[C@H](CCCNC(=N)N)NC(=O)[C@H](Cc1c[nH]c2ccccc12)NC(=O)[C@H](CCC(=O)O)NC(=O)[C@H](CCSC)NC(=O)[C@@H]1CCCN1C(=O)[C@H](Cc1ccc(O)cc1)NC(=O)[C@H](CS)NC(=O)[C@H](Cc1cnc[nH]1)NC(=O)[C@@H]1CCCN1C(=O)[C@H](Cc1cnc[nH]1)NC(=O)[C@H](CCCCN)NC(=O)[C@H](CCCNC(=N)N)NC(=O)[C@H](CS)NC(=O)[C@H](CCC(N)=O)NC(=O)[C@H](Cc1ccccc1)NC(=O)[C@H](Cc1ccc(O)cc1)NC(=O)[C@H](CO)NC(=O)[C@H](C)NC(=O)[C@@H]1CCCN1C(=O)[C@@H](N)CS)C(=O)N[C@@H](CC(=O)O)C(=O)NCC(=O)N[C@@H](CO)C(=O)N[C@@H](CC(=O)O)C(=O)N[C@@H](CCC(=O)O)C(=O)N[C@@H](CCC(=O)O)C(=O)N[C@@H](CCCNC(=N)N)C(=O)N[C@@H](CS)C(=O)NCC(=O)NCC(=O)NCC(=O)NCC(=O)O` (H-CPASYFQCRKHPHCYPMEWRCDGFPDCIDGSDEERCGGGG-OH), the inhibition entry in assay [1] and in assay [2] was “Active” throughout. For the same compound, the half-inhibitory concentration (IC50) in assay [3] lay within 0.8 to 3 nM.

The values above are taken from ChEMBL document CHEMBL4417633, “Inhibitory polypeptides specific to WNT inhibitors” (2017).
